These results are taken from ChEMBL document CHEMBL3792388, “Ecdysones from Zoanthus spp. with inhibitory activity against dengue virus 2” (Bioorg Med Chem Lett, 2016).

Data set [1] can be described thus: Selectivity index, ratio of CC50 for human HuH7 cells to EC50 for Dengue virus 2 DN454009A infected in human HuH7 cells. It counts as toxicity, cell-based, Huh-7. The note with it: read-out: Ratio CC50/EC50.
Data set [2] is described as follows: Cytotoxicity against human HuH7 cells assessed as reduction in cell viability after 72 hrs by MTS assay. In kind it is cell-based, Huh-7. A general note: Tetrazolium dyes change colour on reduction, which living cells bring about.
The next data set relates to dengue virus type 2. Description: Antiviral activity against Dengue virus 2 DN454009A infected in human HuH7 cells assessed as inhibition of viral RNA level measured 72 hrs post infection by qRT-PCR method. The note with it: Huh-7, 72 h. In kind it is functional, organism-based. (In general: Quantitative PCR measures a nucleic acid by following its amplification.)
Another data set relates to dengue virus type 4. Description: Antiviral activity against Dengue virus 4 S9201818 infected in human HuH7 cells assessed as inhibition of viral RNA level measured 72 hrs post infection by qRT-PCR method. It counts as functional, organism-based. The note with it: S9201818, Huh-7, 72 h.
A further data set concerns dengue virus type 1. Description: Antiviral activity against Dengue virus 1 DN8700828 infected in human HuH7 cells assessed as inhibition of viral RNA level measured 72 hrs post infection by qRT-PCR method. It counts as functional, organism-based. The settings on record: DN8700828, Huh-7, 72 h.
Another data set relates to dengue virus type 3. Description: Antiviral activity against Dengue virus 3 DN8700829A infected in human HuH7 cells assessed as inhibition of viral RNA level measured 72 hrs post infection by qRT-PCR method. The settings on record: Huh-7, 72 h. It counts as functional, organism-based.

pEC50: −log10 of the molar value. A value given as a limit tells only on which side of the number the result lay.

Take `CC(=O)O[C@@H]1C[C@H]2C(=O)C=C3[C@H](CC[C@]4(C)[C@@H]([C@@](C)(O)[C@H](O)CCC(C)(C)O)CC[C@@]34O)[C@@]2(C)C[C@@H]1O`: the selectivity ratio in data set [1] is above 8. For the same molecule, in data set [2], the CC50 (commonly the concentration at which the toxic effect on the cells reaches its halfway point) at 72 h was above 700 µM. The negative-log EC50 (pEC50) (in general, −log10 of the EC50, conventionally taken in molar units) in the data set on dengue virus type 2 is 4.06.
For `C[C@H](O)[C@H]1CC[C@@]2(O)C3=CC(=O)[C@@H]4C[C@@H](O)[C@@H](O)C[C@]4(C)[C@H]3CC[C@]12C`, in data set [2], the half-maximal cytotoxic concentration (CC50) at 72 h is above 700 µM. Besides, in the data set with dengue virus type 2, the negative logarithm of the EC50 (pEC50) is below 4.00.
The matching figures for `CC(CO)CC[C@@H](O)[C@](C)(O)[C@H]1CC[C@@]2(O)C3=CC(=O)[C@@H]4C[C@@H](O)[C@@H](O)C[C@]4(C)[C@H]3CC[C@]12C` (some centres not stated) [INOKOSTERONE]: above 700 µM and below 4.00.
On to `C[C@@]1(O)[C@H](O)[C@@H](CO)O[C@H]1n1ccc(N)nc1=O`, for which the selectivity ratio in data set [1] was above 8.5. Also, in data set [2], the CC50 at 72 h amounted to 94.8 µM. The negative logarithm of the EC50 (pEC50) with dengue virus type 2 is 4.95.
Taken in the same sequence, the figures for `CC(C)(O)CC[C@@H](O)[C@](C)(O)[C@H]1CC[C@@]2(O)C3=CC(=O)[C@@H]4C[C@@H](O)[C@@H](O)C[C@]4(C)[C@H]3[C@H](O)C[C@]12C` [TURKESTERONE] were above 18.3, above 700 µM and 4.42.
Taken in the same sequence, the figures for `CC(C)(O)CC[C@@H](O)[C@](C)(O)[C@H]1CC[C@@]2(O)C3=CC(=O)[C@@H]4C[C@@H](O)[C@@H](O)C[C@]4(C)[C@H]3CC[C@]12C` [20-HYDROXYECDYSONE] were above 13.1, above 700 µM and 4.27.
Regarding `CC(C)CC[C@@H](O)[C@](C)(O)[C@H]1CC[C@@]2(O)C3=CC(=O)[C@@H]4C[C@@H](O)[C@@H](O)C[C@]4(C)[C@H]3[C@H](O)C[C@]12C`, the selectivity ratio in data set [1] is above 69.7. For the same molecule, the negative-log EC50 (pEC50) in the data set with dengue virus type 4 is 4.92; in the data set with dengue virus type 1, 4.80; in the data set with dengue virus type 2 it was 5.00; in the data set on dengue virus type 3, 5.02. For the same molecule, the half-maximal cytotoxic concentration (CC50) at 72 h in data set [2] was above 700 µM.
`C=C(C[C@@H](O)[C@](C)(O)[C@H]1CC[C@@]2(O)C3=CC(=O)[C@@H]4C[C@@H](O)[C@@H](O)C[C@]4(C)[C@H]3CC[C@]12C)C(C)(C)O`: the cytotoxic concentration (CC50) at 72 h in data set [2] was above 700 µM. Also, the pEC50 in the data set on dengue virus type 2 was below 4.00.
Taken in the same sequence, the figures for `CC(C)(O)CC[C@@H](O)[C@](C)(O)[C@H]1CC[C@@]2(O)C3=CC(=O)[C@@H]4C[C@@H](O)CC[C@]4(C)[C@H]3CC[C@]12C` were above 700 µM and below 4.00.
Take `CC(=O)OC(C)(C)CC[C@@H](O)[C@](C)(O)[C@H]1CC[C@@]2(O)C3=CC(=O)[C@@H]4C[C@@H](O)[C@@H](O)C[C@]4(C)[C@H]3[C@H](O)C[C@]12C`: the selectivity ratio in data set [1] is above 36.7. Further, the CC50 at 72 h in data set [2] was above 700 µM. In addition, the pEC50 in the data set on dengue virus type 2 is 4.71.
With `CC(C)CC[C@@H](O)[C@](C)(O)[C@H]1CC[C@@]2(O)C3=CC(=O)[C@@H]4C[C@@H](O)[C@@H](O)C[C@]4(C)[C@H]3CC[C@]12C` [PONASTERONE A], in data set [2], the 50% cytotoxic concentration (CC50) at 72 h was above 700 µM. Besides, the negative logarithm of the EC50 (pEC50) in the data set with dengue virus type 2 is below 4.00.
Regarding `C[C@H]([C@H](O)CCC(C)(C)O)[C@H]1CC[C@@]2(O)C3=CC(=O)[C@@H]4C[C@@H](O)[C@@H](O)C[C@]4(C)[C@H]3CC[C@]12C` [ECDYSONE], the selectivity ratio in data set [1] is above 12.9. In addition, the cytotoxic concentration (CC50) at 72 h in data set [2] is above 700 µM. In addition, the pEC50 in the data set with dengue virus type 2 is 4.27.
Taken in the same sequence, the figures for `CC(=O)OC(C)(C)CC[C@@H](O)[C@](C)(O)[C@H]1CC[C@@]2(O)C3=CC(=O)[C@@H]4C[C@@H](O)[C@@H](O)C[C@]4(C)[C@H]3CC[C@]12C` were above 17.6, above 700 µM and 4.40.
